The source made the active and inactive calls. No cut-off for these calls is given here.
Tests used:
[1] = target: Tumour suppressor p53/oncoprotein Mdm2 (Homo sapiens, UniProt Q00987); experiment: Inhibition of MDM2/p53 (unknown origin) interaction by fluorescence polarization assay; assay type: protein assay
[2] = target: Tumour suppressor protein p53/Mdm4 (Homo sapiens, UniProt O15151); experiment: Inhibition of MDM4/p53 (unknown origin) interaction by fluorescence polarization assay; assay type: protein assay
MOLM-13 [3] = experiment: Induction of apoptosis in human MOLM-13 cells assessed as increase in PARP cleavage at 0.15 to 0.6 uM incubated for 24 hrs by Western blot analysis; assay type: functional, cell-based; conditions: dose 0.15-0.6 µM
[4] = target: Cellular tumor antigen p53 (Homo sapiens) (UniProt P04637); experiment: Activation of p53 pathway in human MOLM-13 cells assessed as increase in p21 mRNA level incubated for 24 hrs by qPCR analysis; assay type: cell-based; conditions: filed as activator, dose 0.038-0.6 µM
[5] = target: Cellular tumor antigen p53 (Homo sapiens) (UniProt P04637); experiment: Activation of p53 pathway in human MOLM-13 cells assessed as increase in BAX mRNA level incubated for 24 hrs by qPCR analysis; assay type: cell-based; conditions: filed as activator, dose 0.038-0.6 µM
MOLM-13 [6] = experiment: Induction of apoptosis in human MOLM-13 cells assessed as viable cells at 0.1 uM incubated for 24 hrs by Annexin V-FITC/PI staining based flow cytometry (reference value: 95.1 %); assay type: functional; conditions: read-out: Activity
MOLM-13 [7] = experiment: Induction of apoptosis in human MOLM-13 cells assessed as early apoptotic cells at 0.1 uM incubated for 24 hrs by Annexin V-FITC/PI staining based flow cytometry (reference value: 4.44 %); assay type: functional
MOLM-13 [8] = experiment: Induction of apoptosis in human MOLM-13 cells assessed as necrotic cells at 0.1 uM incubated for 24 hrs by Annexin V-FITC/PI staining based flow cytometry (reference value: 0.020 %); assay type: functional
MOLM-13 [9] = experiment: Induction of apoptosis in human MOLM-13 cells assessed as viable cells at 0.3 uM incubated for 24 hrs by Annexin V-FITC/PI staining based flow cytometry (reference value: 95.1 %); assay type: functional; conditions: read-out: Activity
MOLM-13 [10] = experiment: Induction of apoptosis in human MOLM-13 cells assessed as early apoptotic cells at 0.3 uM incubated for 24 hrs by Annexin V-FITC/PI staining based flow cytometry (reference value: 4.44 %); assay type: functional
MOLM-13 [11] = experiment: Induction of apoptosis in human MOLM-13 cells assessed as late apoptotic cells at 0.3 uM incubated for 24 hrs by Annexin V-FITC/PI staining based flow cytometry (reference value: 0.457 %); assay type: functional
MOLM-13 [12] = experiment: Induction of apoptosis in human MOLM-13 cells assessed as early apoptotic cells at 0.9 uM incubated for 24 hrs by Annexin V-FITC/PI staining based flow cytometry (reference value: 4.44 %); assay type: functional
MOLM-13 [13] = experiment: Induction of apoptosis in human MOLM-13 cells assessed as late apoptotic cells at 0.9 uM incubated for 24 hrs by Annexin V-FITC/PI staining based flow cytometry (reference value: 0.457 %); assay type: functional
MOLM-13 [14] = experiment: Induction of apoptosis in human MOLM-13 cells assessed as necrotic cells at 0.9 uM incubated for 24 hrs by Annexin V-FITC/PI staining based flow cytometry (reference value: 0.020 %); assay type: functional
MOLM-13 [15] = experiment: Induction of apoptosis in human MOLM-13 cells assessed as early apoptotic cells at 2.7 uM incubated for 24 hrs by Annexin V-FITC/PI staining based flow cytometry (reference value: 4.44 %); assay type: functional
MOLM-13 [16] = experiment: Induction of apoptosis in human MOLM-13 cells assessed as late apoptotic cells at 2.7 uM incubated for 24 hrs by Annexin V-FITC/PI staining based flow cytometry (reference value: 0.457 %); assay type: functional
MOLM-13 [17] = experiment: Induction of apoptosis in human MOLM-13 cells assessed as necrotic cells at 2.7 uM incubated for 24 hrs by Annexin V-FITC/PI staining based flow cytometry (reference value: 0.020 %); assay type: functional
MOLM-13 [18] = experiment: Induction of apoptosis in human MOLM-13 cells assessed as viable cells at 8.1 uM incubated for 24 hrs by Annexin V-FITC/PI staining based flow cytometry (reference value: 95.1 %); assay type: functional; conditions: read-out: Activity
MOLM-13 [19] = experiment: Induction of apoptosis in human MOLM-13 cells assessed as early apoptotic cells at 8.1 uM incubated for 24 hrs by Annexin V-FITC/PI staining based flow cytometry (reference value: 4.44 %); assay type: functional
MOLM-13 [20] = experiment: Induction of apoptosis in human MOLM-13 cells assessed as late apoptotic cells at 8.1 uM incubated for 24 hrs by Annexin V-FITC/PI staining based flow cytometry (reference value: 0.457 %); assay type: functional
MOLM-13 [21] = experiment: Induction of apoptosis in human MOLM-13 cells assessed as early apoptotic cells at 24.3 uM incubated for 24 hrs by Annexin V-FITC/PI staining based flow cytometry (reference value: 4.44 %); assay type: functional
MOLM-13 [22] = experiment: Induction of apoptosis in human MOLM-13 cells assessed as late apoptotic cells at 24.3 uM incubated for 24 hrs by Annexin V-FITC/PI staining based flow cytometry (reference value: 0.457 %); assay type: functional
MOLM-13 [23] = experiment: Induction of apoptosis in human MOLM-13 cells assessed as necrotic cells at 24.3 uM incubated for 24 hrs by Annexin V-FITC/PI staining based flow cytometry (reference value: 0.020 %); assay type: functional
[24] = Selectivity index, ratio of IC50 for HEK293 cells to IC50 for human HeLa cells; assay type: toxicity; conditions: HEK293 cells versus HeLa cells, read-out: Ratio IC50
[25] = Selectivity index, ratio of IC50 for HEK293 cells to IC50 for human SW480 cells
[26] = target: Cellular tumor antigen p53 (Homo sapiens) (UniProt P04637); experiment: Activation of p53 pathway in human HCT-116 cells assessed as increase in p53 level at 1 uM incubated for 24 hrs by Western blot analysis; assay type: cell-based; conditions: filed as activator
[27] = target: Cellular tumor antigen p53 (Homo sapiens) (UniProt P04637); experiment: Activation of p53 pathway in human HCT-116 cells assessed as increase in MDM2 level at 1 uM incubated for 24 hrs by Western blot analysis; assay type: cell-based; conditions: filed as activator
[28] = target: Cellular tumor antigen p53 (Homo sapiens) (UniProt P04637); experiment: Activation of p53 pathway in human A549 cells assessed as increase in p53 level at 1 uM incubated for 24 hrs by Western blot analysis; assay type: cell-based; conditions: filed as activator
[29] = target: Cellular tumor antigen p53 (Homo sapiens) (UniProt P04637); experiment: Activation of p53 pathway in human A549 cells assessed as increase in MDM2 level at 1 uM incubated for 24 hrs by Western blot analysis; assay type: cell-based; conditions: filed as activator
[30] = target: Cellular tumor antigen p53 (Homo sapiens) (UniProt P04637); experiment: Activation of p53 pathway in human A549 cells assessed as increase in p21 level at 1 uM incubated for 24 hrs by Western blot analysis; assay type: cell-based; conditions: filed as activator
[31] = target: Cellular tumor antigen p53 (Homo sapiens) (UniProt P04637); experiment: Activation of p53 pathway in human HeLa cells assessed as increase in MDM2 level at 1 uM incubated for 24 hrs by Western blot analysis; assay type: cell-based
[32] = target: Cellular tumor antigen p53 (Homo sapiens) (UniProt P04637); experiment: Activation of p53 pathway in human HeLa cells assessed as increase in p21 level at 1 uM incubated for 24 hrs by Western blot analysis; assay type: cell-based
HCT-116 = experiment: cells; conditions: Homo sapiens, HCT-116, 96 h
MOLM-13 [33] = experiment: cells; conditions: Homo sapiens, MOLM-13, 48 h
A549 = experiment: cells; conditions: Homo sapiens, A549, 96 h

Cellular tumor antigen p53 (Homo sapiens), sequence (P04637 whole entry, looked up): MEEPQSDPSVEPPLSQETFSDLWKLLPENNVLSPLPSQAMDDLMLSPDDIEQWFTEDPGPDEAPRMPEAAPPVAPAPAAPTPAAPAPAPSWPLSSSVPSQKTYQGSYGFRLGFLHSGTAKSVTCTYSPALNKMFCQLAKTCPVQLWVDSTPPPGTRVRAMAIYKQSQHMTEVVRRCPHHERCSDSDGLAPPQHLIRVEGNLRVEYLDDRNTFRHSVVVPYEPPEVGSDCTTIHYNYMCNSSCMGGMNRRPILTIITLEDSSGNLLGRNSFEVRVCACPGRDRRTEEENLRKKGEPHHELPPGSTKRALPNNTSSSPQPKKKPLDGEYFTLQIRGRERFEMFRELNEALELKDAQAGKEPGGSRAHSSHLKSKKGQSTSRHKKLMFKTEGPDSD
Tumour suppressor p53/oncoprotein Mdm2, sequence (P04637 whole entry): as the sequence (P04637 whole entry, looked up) above
Tumour suppressor p53/oncoprotein Mdm2, sequence (Q00987 whole entry): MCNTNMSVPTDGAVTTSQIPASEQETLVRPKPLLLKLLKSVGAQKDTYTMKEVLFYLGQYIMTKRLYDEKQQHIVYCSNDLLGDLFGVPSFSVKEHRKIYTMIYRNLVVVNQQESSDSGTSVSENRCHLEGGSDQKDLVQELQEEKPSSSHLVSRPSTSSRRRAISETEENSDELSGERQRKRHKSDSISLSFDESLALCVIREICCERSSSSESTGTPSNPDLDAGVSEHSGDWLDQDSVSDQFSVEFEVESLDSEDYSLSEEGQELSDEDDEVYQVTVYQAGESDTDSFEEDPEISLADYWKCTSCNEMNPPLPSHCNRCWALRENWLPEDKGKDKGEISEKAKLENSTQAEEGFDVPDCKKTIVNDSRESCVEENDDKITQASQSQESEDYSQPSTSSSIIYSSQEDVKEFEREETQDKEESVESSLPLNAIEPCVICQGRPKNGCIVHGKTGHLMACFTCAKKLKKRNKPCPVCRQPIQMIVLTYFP
Tumour suppressor protein p53/Mdm4, sequence (P04637 whole entry): as the sequence (P04637 whole entry, looked up) above
Tumour suppressor protein p53/Mdm4, sequence (O15151 whole entry): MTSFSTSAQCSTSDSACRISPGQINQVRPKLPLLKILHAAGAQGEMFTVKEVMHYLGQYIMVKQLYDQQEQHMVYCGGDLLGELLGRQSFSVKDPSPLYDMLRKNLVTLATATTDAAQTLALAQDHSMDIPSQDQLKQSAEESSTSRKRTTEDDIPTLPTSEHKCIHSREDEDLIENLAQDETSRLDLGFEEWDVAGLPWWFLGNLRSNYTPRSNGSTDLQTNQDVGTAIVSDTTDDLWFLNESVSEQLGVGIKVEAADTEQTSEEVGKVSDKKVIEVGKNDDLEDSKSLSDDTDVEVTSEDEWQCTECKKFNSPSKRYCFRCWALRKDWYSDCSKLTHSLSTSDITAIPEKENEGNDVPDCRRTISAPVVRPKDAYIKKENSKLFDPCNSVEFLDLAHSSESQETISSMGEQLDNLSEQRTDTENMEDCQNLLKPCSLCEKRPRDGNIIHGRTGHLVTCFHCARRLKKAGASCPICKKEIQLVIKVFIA

Structure (SMILES): COc1cc(C(=O)O)ccc1N1CN2[C@@H](CC(C)(C)C)[C@@]3(CNc4cc(Cl)ccc43)[C@@H](c3cccc(Cl)c3)[C@@H]2C1=O
- Ki [1]: 0.4 nM
- Ki [2]: > 27000 nM
- Activity (MOLM-13 [3]): Active
- Activity [4]: Dose-Dependent Effect
- Activity [5]: Dose-Dependent Effect
- viability at 0.1 µM (MOLM-13 [6]): 83.8%
- Activity (MOLM-13 [7]): 15.2%
- Activity (MOLM-13 [8]): 0.124%
- viability at 0.3 µM (MOLM-13 [9]): 74.5%
- Activity (MOLM-13 [10]): 24.4%
- Activity (MOLM-13 [11]): 0.998%
- Activity (MOLM-13 [12]): 48.8%
- Activity (MOLM-13 [13]): 1.06%
- Activity (MOLM-13 [14]): 0.119%
- Activity (MOLM-13 [15]): 68.6%
- Activity (MOLM-13 [16]): 1.18%
- Activity (MOLM-13 [17]): 0.125%
- viability at 8.1 µM (MOLM-13 [18]): 27.4%
- Activity (MOLM-13 [19]): 71%
- Activity (MOLM-13 [20]): 1.41%
- Activity (MOLM-13 [21]): 89.4%
- Activity (MOLM-13 [22]): 1.96%
- Activity (MOLM-13 [23]): 0.047%
- selectivity ratio [24]: 0.8
- Ratio IC50 [25]: 1.6
- Activity [26]: Active
- Activity [27]: Active
- Activity [28]: Active
- Activity [29]: Active
- Activity [30]: Active
- Activity [31]: inactive
- Activity [32]: inactive
- IC50 (HCT-116): 28.1 nM
- IC50 (MOLM-13 [33]): 0.8 nM
- IC50 (A549): 184 nM

From ChEMBL document CHEMBL5512651, “Synthesis and biological evaluation of 4-imidazolidinone-containing compounds as potent inhibitors of the MDM2/p53 interaction” (Eur J Med Chem, 2024)
